Reference: patent publication US20230212638A1 (priority 2020, published 2023)

What was measured:
Assay type in all cases: cell-based
[1] = system: NBRC12993 (Staphylococcus epidermidis control strain); experiment: Drug sensitivity of Staphylococcus epidermidis NBRC12993 by resonance frequency shift on GHz array sensor; conditions: PIPC 10.0 μg/mL
Excerpt: By using NBRC12993 being a control strain of Staphylococcus epidermidis, the inventors conducted verification experiments of growth and drug sensitivity of Staphylococcus epidermidis by the test method above.
In this experiment, piperacillin (penicillin) being a time-dependent drug was used. That is, this drug exerts an inhibitory action on growth by retaining the effective drug concentration for a certain period of time. A control sample of NBRC12993 was mixed with piperacillin (PIPC) to prepare a sample for drug sensitivity evaluation at a […] concentration of 10.0 μg/mL (PIPC 10.0 μg/mL). Further, in order to verify the frequency shift of a killed bacterium, a sample was prepared by subjecting 200 μL of a control sample to heat treatment at 98° C. for 30 minutes.
The samples thus prepared were introduced into different containers 60, respectively, and the frequency shift was measured for each sample. In this case, capping solvent 300 was not added into each container 60. The temperatures of an incubator and a Peltier element during the measurement were set in a similar manner to Example 1 above. In analysis processing, frequency shifts of all the 1488 elements on array sensor 10 were measured every 10 seconds, the average value of the measured frequency shifts was calculated every 5 minutes, and extracted as the frequency shift at each timing of the measurement. In addition to this, in Example 3, a region where the growth of Staphylococcus epidermidis was observed was designated on the display image, and the average value of the frequency shifts in this growth region was calculated every 5 minutes. […]
Further, FIG. 12(b) is a display image showing a frequency shift of each element by color when a control sample to which PIPC was not added was measured at the time point after the lapse of 240 minutes, and FIG. 12(c) is a display image showing a frequency shift of each element by color when a sample for drug sensitivity evaluation to which PIPC was added (PIPC 10.0 μg/mL) was measured at the time point after the lapse of 240 minutes. […]

[2] = system: BCG (Mycobacterium bovis); conditions: SM sample: 196 μL control sample + 4 μL SM at 25 mg/mL; 20 elements; 12 hours; 37° C.; FIG. 10(b)
[3] = system: NBRC3301 (Escherichia coli control strain); experiment: Drug sensitivity of Escherichia coli NBRC3301 by resonance frequency shift on GHz array sensor
Procedure: By using NBRC3301 as a control strain of Escherichia coli, the inventors conducted verification experiments of growth and drug sensitivity of Escherichia coli by the test method above.
In this experiment, streptomycin (aminoglycoside) being a concentration-dependent drug was used. 196 μL of a control sample of NBRC3301 was mixed with 4 μL of SM at a concentration of 25 mg/mL to prepare a sample for drug sensitivity evaluation at a SM concentration of 500 μg/mL (SM_500 μg/mL). Further, the amount of the SM to be added to the control sample was adjusted to prepare a sample for drug sensitivity evaluation at a SM concentration of 250 μg/mL (SM_250 μg/mL) and a sample for drug sensitivity evaluation at a SM concentration of 125 μg/mL (SM_125 μg/mL). Furthermore, in order to verify the frequency shift of a killed bacterium, a sample was prepared by subjecting 200 μL of a control sample to heat treatment at 98° C. for 30 minutes. […]
The samples thus prepared were introduced into different containers 60, respectively, and the frequency shift was measured for each sample. […] In analysis processing, frequency shifts of all the 1488 elements on array sensor 10 were measured every 10 seconds, the average value of the measured frequency shifts was calculated every 5 minutes, and extracted as the frequency shift at each timing of the measurement. […]

Compound: CCN1CCN(C(=O)N[C@@H](C(=O)N[C@@H]2C(=O)N3[C@@H]2SC(C)(C)[C@@H]3C(=O)O)c2ccccc2)C(=O)C1=O [PIPC, piperacillin]
- increase in the frequency shift with the lapse of time ([1]; 240 minutes, no capping solvent, compared with heat-treated killed bacteria, FIG. 12(a)): the increase in the frequency shift was suppressed more than that in the case where heat treatment was performed
- time from start of measurement until which the frequency shift increased, decreasing trend thereafter (time-dependent action) ([1]; FIG. 12(a)): around 120 minutes
- frequency shift of each element in display image ([1]; after the lapse of 240 minutes, FIG. 12(c)): the frequency shifts of all the elements were uniformly suppressed low

Compound: [H]/N=C(/N)N[C@H]1[C@H](O)[C@@H](O)[C@H](O[C@@H]2O[C@@H](C)[C@](O)(C=O)[C@H]2O[C@@H]2O[C@@H](CO)[C@H](O)[C@@H](O)[C@@H]2NC)[C@@H](N/C(N)=N\[H])[C@@H]1O [SM, streptomycin]
- growth of BCG reflected on the frequency shift of each element [2]: growth of BCG was suppressed
- frequency shift of each element in display image ([3]; SM 500 μg/mL, after the lapse of 60 minutes, FIG. 11(c)): the frequency shifts of all the elements were uniformly suppressed low
- increase in the frequency shift with the lapse of time, compared with control sample ([3]; SM 500, 250 and 125 μg/mL, average of all 1488 elements, 60 minutes, no capping solvent, suppression greater at higher concentration, FIG. 11(a)): the increase in the frequency shift was suppressed
